According to paper PMC12967844 (Engineering Microbiology, 2025):

Target: PtlI (pentalenene oxygenase) (Streptomyces avermitilis, UniProt Q82IY3)
Conditions: E. coli co-expressing penA; substrate made in the cell; endogenous E. coli redox proteins

Chain of PtlI (pentalenene oxygenase) (Q82IY3 whole entry): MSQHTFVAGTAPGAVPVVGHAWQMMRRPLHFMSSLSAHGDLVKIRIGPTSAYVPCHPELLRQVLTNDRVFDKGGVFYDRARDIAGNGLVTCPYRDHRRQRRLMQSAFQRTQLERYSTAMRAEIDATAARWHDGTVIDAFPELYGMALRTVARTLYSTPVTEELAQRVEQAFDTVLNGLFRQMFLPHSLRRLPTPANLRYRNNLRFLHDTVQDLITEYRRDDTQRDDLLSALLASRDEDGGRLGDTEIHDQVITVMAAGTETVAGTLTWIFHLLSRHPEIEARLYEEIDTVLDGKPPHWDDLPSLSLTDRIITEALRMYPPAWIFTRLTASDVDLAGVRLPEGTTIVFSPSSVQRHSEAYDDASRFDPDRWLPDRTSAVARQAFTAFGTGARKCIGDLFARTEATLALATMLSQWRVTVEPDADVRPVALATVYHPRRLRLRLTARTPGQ

SMILES: CC1=C[C@@H]2CC(C)(C)C[C@@]23[C@H](C)CC[C@@H]13 [compound 3, pentalenene]
- GC-MS of culture extracts, heterologous expression in E. coli: PtlI can catalyze a three-step oxidation in the cell
